The results in this text go back to the NIST ThermoML archive (doi:10.1021/je8001128).

Usually mass density stands for the mass of a sample divided by its volume. A word on the viscosity: it is the resistance of a fluid to flow.

± gives the expanded uncertainty stated by the source.

For this series the following is noted: 298.15 K; 101 kPa; Liquid.

With `CC(C)=O` [acetone], the mass density was found to be 785.36 ± 0.81 kg/m3 and the viscosity is on record as 0.3 ± 0.1 mPa·s. Take `CCOC=O` [ethyl methanoate]: the viscosity worked out at 0.4 ± 0.1 mPa·s.

With `COC(C)=O` [methyl ethanoate], the viscosity is 0.4 ± 0.1 mPa·s.

For the compound `COC=O` [methyl methanoate], the mass density was determined as 964.78 ± 0.45 kg/m3 and the viscosity worked out at 0.3 ± 0.1 mPa·s.
